Reference: the supplement of paper PMC10307832

Legend:
Experiment in all cases: relative viability (nuclei count vs DMSO), 5 days (fraction); higher = more cells survive
Veliparib + Tozasertib = compound: C[C@]1(c2nc3c(C(N)=O)cccc3[nH]2)CCCN1 [Veliparib] + Cc1cc(Nc2cc(N3CCN(C)CC3)nc(Sc3ccc(NC(=O)C4CC4)cc3)n2)n[nH]1 [Tozasertib] (partner 0.1 µM)
Procedure, shortened: (§1)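 The day after seeding in 1536-well plates, lung cancer cell lines were treated by pin tool with a single drug, or with a fixed anchor-drug dose together with five library-drug doses (not always all listed) in √10 steps. After 5 days, a combined fix-and-stain solution (final 0.05% Triton X-100, 1% formaldehyde, 1 ug/ml Hoechst) was added. Nuclei counted on 4× images gave relative viability as treated counts over vehicle counts, reported as the median of duplicate plates.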

Veliparib + Olaparib = compound: C[C@]1(c2nc3c(C(N)=O)cccc3[nH]2)CCCN1 [Veliparib] + O=C(c1cc(Cc2n[nH]c(=O)c3ccccc23)ccc1F)N1CCN(C(=O)C2CC2)CC1 [Olaparib] (partner 8 µM)
Procedure, shortened: as §1

Veliparib + Luminespib = compound: C[C@]1(c2nc3c(C(N)=O)cccc3[nH]2)CCCN1 [Veliparib] + CCNC(=O)c1noc(-c2cc(C(C)C)c(O)cc2O)c1-c1ccc(CN2CCOCC2)cc1 [Luminespib] (partner 0.01 µM)
Procedure, shortened: as §1

[1] = compound: COC1=CC=C(C=C1)CN2C=CC3=C2C=C(C=C3)C(=O)NO + O=C(CCCCCCC(=O)Nc1ccccc1)NO [Vorinostat] (partner 1 µM)
Procedure, shortened: as §1

| Cell Line | relative viability (Veliparib + Tozasertib; first compound 0.02 µM) | relative viability (Veliparib + Tozasertib; first compound 0.06325 µM) | relative viability (Veliparib + Tozasertib; first compound 0.2 µM) | relative viability (Veliparib + Tozasertib; first compound 0.6325 µM) | relative viability (Veliparib + Tozasertib; first compound 2 µM) | relative viability (Veliparib + Olaparib; first compound 0.02 µM) | relative viability (Veliparib + Olaparib; first compound 0.06325 µM) | relative viability (Veliparib + Olaparib; first compound 0.2 µM) | relative viability (Veliparib + Olaparib; first compound 0.6325 µM) | relative viability (Veliparib + Olaparib; first compound 2 µM) | relative viability (Veliparib + Luminespib; first compound 0.02 µM) | relative viability (Veliparib + Luminespib; first compound 0.06325 µM) | relative viability (Veliparib + Luminespib; first compound 0.2 µM) | relative viability (Veliparib + Luminespib; first compound 0.6325 µM) | relative viability (Veliparib + Luminespib; first compound 2 µM) | relative viability ([1]; first compound 0.08 µM) | relative viability ([1]; first compound 0.253 µM) | relative viability ([1]; first compound 0.8 µM) | relative viability ([1]; first compound 2.53 µM) | relative viability ([1]; first compound 8 µM) |
| --- | --- | --- | --- | --- | --- | --- | --- | --- | --- | --- | --- | --- | --- | --- | --- | --- | --- | --- | --- | --- |
| NCI-H1915 | 0.402 | 0.426 | 0.413 | 0.409 | 0.394 | 0.252 | 0.238 | 0.243 | 0.251 | 0.254 | 0.799 | 0.6 | 0.647 | 0.553 | 0.596 | 0.326 | 0.49 | 0.48 | 0.514 | 0.492 |
| NCI-H1793 | 0.364 | 0.349 | 0.391 | 0.371 | 0.41 | 0.954 | 0.976 | 0.827 | 0.851 | 1.01 | 0.196 | 0.174 | 0.177 | 0.169 | 0.181 |  | 0.832 | 0.801 | 0.816 | 0.759 |
| NCI-H596 | 0.838 | 0.774 | 0.99 | 0.859 | 0.811 | 0.832 | 0.587 | 0.75 | 0.7 | 0.738 | 0.975 | 1.02 | 1.17 | 0.889 | 0.919 | 0.587 | 0.536 | 0.589 | 0.708 | 0.778 |
| NCI-H1666 | 0.582 | 0.582 | 0.598 | 0.547 | 0.62 | 0.777 | 0.711 | 0.82 | 0.771 | 0.778 | 1.01 | 0.984 | 0.968 | 0.941 | 0.982 | 0.945 | 1.09 | 1.01 | 1.09 | 1.04 |
| NCI-H3122 | 0.439 | 0.428 | 0.453 | 0.383 | 0.395 | 0.628 | 0.571 | 0.549 | 0.619 | 0.623 | 0.0959 | 0.0908 | 0.097 | 0.0912 | 0.0755 | 0.752 | 1.08 | 1.01 | 1.17 | 0.982 |
| SW 900 |  |  | 0.636 | 0.533 | 0.586 |  | 0.724 | 0.939 | 0.722 | 0.818 |  |  | 0.204 | 0.19 | 0.118 | 0.477 | 0.334 | 0.441 | 0.733 | 0.358 |
| PC-14 | 0.638 | 0.584 | 0.562 | 0.526 | 0.674 | 0.342 | 0.326 | 0.368 | 0.38 | 0.204 |  | 0.147 | 0.198 | 0.151 | 0.145 | 0.21 | 0.667 | 0.725 | 0.733 | 0.782 |
| NCI-H2087 | 0.258 | 0.235 | 0.222 | 0.203 | 0.27 | 0.648 | 0.484 | 0.642 | 0.589 | 0.681 | 0.167 | 0.188 | 0.152 | 0.14 | 0.145 | 0.276 | 0.649 | 1.26 | 0.809 | 0.663 |
